# Data as given in patent US20140088052A1, “CHALCONE DERIVATIVES AS NRF2 ACTIVATORS” (THE JOHNS HOPKINS UNIVERSITY, priority 2011, published 2014).
# Assays:
# Beas-2B cells = assay: Cell viability / cytotoxicity (MTT assay) in Beas-2B cells; assay type: cell-based, human; conditions: 24 h, DMSO = 100
# Description: Concurrent with the gene expression analysis, the cytotoxicity of the chalcone derivatives was determined using the MTT assay.
# Mad. Chem. 2007, 15, 2952-2962. […] Four hours before the end of incubation, the medium was removed and 100 μL of MTT (5 mg/mL in serum free medium) was added to each well. The MTT was removed after 4 h, cells were washed with PBS, and 100 μL DMSO was added to each well to dissolve the water-insoluble MTT-formazan crystals. The absorbance was recorded at 570 nm in a plate reader (Molecular Devices, Sunnyvale, Calif.).
# Nrf2 [1] = assay: In vivo potency to activate Nrf2: GCLM and NQO1 expression in mouse small intestine; design: species or system mice (C57BL/6); conditions: mice, single dose 50 mg/kg by gavage, 24 h
# Description: Mice (n=4) were fed with vehicle (DCP-10% DMSO+10% Cremophor+80% phosphate buffered saline) or chalcone derivatives or sulforaphane (50 mg/kg body weight) by gavage, and the small intestines were harvested 24 hours later. The expression of Nrf2-regulated genes GCLM and NQO1 was analyzed in the tissues by qRT-PCR as a surrogate marker of Nrf2 activity. β-actin was used for normalization. Data are representative of three independent experiments. Values shown are mean±SD of triplicate wells (P≦0.05);
# The potency of the 8 lead chalcones identified in the in vitro screening to activate Nrf2 pathway were evaluated in mouse models. First, various formulations to dissolve the compounds were evaluated, and the DCP (10% DMSO+10% Cremophor EL+80% phosphate buffered saline) formulation offered the maximum solubility for delivery of these compounds by oral route. Mice (C57BL/6) were administrated with a single dose of vehicle or test compound(s) or sulforaphane as the positive control at a dose of 50 mg/kg body weight by gavage and small intestines were harvested 24 h later. The expression of Nrf2-regulated genes GCLM and NQO1 was analyzed in the tissue by qRT-PCR. All the eight compounds tested increased the expression of GCLM and NQO1 in small intestine. […] The expression of GCLM and NQO1 in the small intestine of mice treated with 2b was 6-fold and 10-fold higher compared to vehicle, respectively. Similarly, the expression of GCLM and NQO1 in the small intestine treated with 2b was 3-fold and 5-fold higher compared to sulforaphane, respectively.
# All experiments in mice were performed in accordance with the standards established by the U.S. Animal Welfare Acts, set forth in NIH guidelines and the Policy and Procedures Manual of the Johns Hopkins University Animal Care and Use Committee. C57BL/6 mice (male, 7 weeks) were maintained on AIN 76A diet (Harlan Tekland, Madison, Wis.) and water ad libitum and housed at a temperature (range, 20-23° C.) under 12 h light/dark cycles. The mice were treated with chalcone analogs (50 mg/kg body weight) or vehicle or sulforaphane as a positive control by gavage. After 24 h treatment, the small intestines were harvested and stored at −80° C. until analysis.
# (§1) Total RNA was extracted from cells/tissue using Qiagen RNeasy kit (Qiagen Corporation, Valencia, Calif.) and reverse transcription was performed by using random hexamers and MultiScribe reverse transcriptase according to the manufacturer's recommendations (Applied Biosystems, Foster City, Calif., USA). Quantitative real-time RT-PCR analyses of Nrf2, NQO1, HO1, and GCLM were performed by using Assay-on-Demand primers and probe sets from Applied Biosystems. Assays were performed using the ABI 7000 Taqman system (Applied Biosystems, Foster City, Calif.). β-actin was used for normalization.
# Nrf2 [2] = assay: Concentration and time-course studies of Nrf2-driven antioxidant genes in Beas-2B cells; assay type: cell-based, human
# Description: as §1, with “The expression of Nrf2-regulated genes GCLM, HO1, and NQO1 was analyzed in the tissues by qRT-PCT as a surrogate marker of Nrf2 activity. β-actin was used for normalization. Data are representative of three independent experiments. […] The expression of Nrf2-regulated genes GCLM, HO1, and NQO1 was analyzed in the tissues by aRT-PCR. β-actin was used for normalization. Data are representative of three independent experiments. Values shown are mean±SD of triplicate wells (P≦0.05); […] […] Total” for “Total”
# [3] = system: chemotherapy-induced neutropenia; assay: Cyclophosphamide-induced reversible neutropenia in mice; assay type: in vivo; conditions: cyclophosphamide i.p. day 0 and day 5, treatment every 48 h, compared to vehicle
# Description: At indicated time periods, a cohort of mice was sacrificed. Peripheral blood was collected and differential blood cell count was analyzed using a Hemavet 950S.
# [4] = Beas-2B cells, 10 μM, 6 h after treatment
smiles,measurement,setting,value
"COc1ccccc1C(=O)/C=C/c1ccccc1C(F)(F)F [Compound 2b, (E)-1-(2-methoxyphenyl)-3-(2-(trifluoromethyl)phenyl)prop-2-en-1-one]",% Cell Viability,Beas-2B cells,100.9%
same,"expression of GCLM in the small intestine, compared to sulforaphane",Nrf2 [1],3 fold
same,"expression of GCLM in the small intestine, compared to vehicle",Nrf2 [1],6 fold
same,"expression of NQO1 in the small intestine, compared to sulforaphane",Nrf2 [1],5 fold
same,"expression of NQO1 in the small intestine, compared to vehicle",Nrf2 [1],10 fold
same,expression of GCLM and NQO1 in small intestine (Nrf2 activity),Nrf2 [1]; in words,most potent inducer of Nrf2 activity
same,expression of HO-1 compared to sulforaphane,"Nrf2 [2]; Beas-2B cells, 10 μM",6 fold
same,expression of NQO1 over time,"Nrf2 [2]; Beas-2B cells, 10 μM, 6, 12, 24 and 48 h",highest at 24 h and remained significantly elevated even at 48 h
same,highest induction of GCLM,Nrf2 [2]; [4],approximately 7 fold
same,highest induction of HO-1,Nrf2 [2]; [4],approximately 150 fold
same,expression of GCLM and HO-1 at 48 h,"Nrf2 [2]; Beas-2B cells, 10 μM, 48 h",comparable to vehicle by 48 h
same,increase in the expression of GCLM,"Nrf2 [2]; Beas-2B cells, 20 μM, 24 h",approximately 5 fold
same,increase in the expression of NQO1,"Nrf2 [2]; Beas-2B cells, 20 μM, 24 h",~10 fold
same,"Nrf2-regulated gene expression (GCLM, NQO1, HO1)","Nrf2 [2]; Beas-2B cells, 2.5, 5, 10, 20 μM, 24 h",significantly increased the Nrf2-regulated gene expression in a concentration-dependent manner
same,duration of neutropenia,[3],significantly reduced the duration of neutropenia
